# Results reported in ChEMBL document CHEMBL1125385, “Novel inhibitors of prolyl 4-hydroxylase. 2. 5-Amide substituted pyridine-2-carboxylic acids” (J Med Chem, 1992).
# Tested on: Prolyl 4-hydroxylase (Gallus gallus); call rule not given here
# Test: Inhibition of Prolyl 4-hydroxylase activity in cultured embryonic chick tendon cells; NA=Not active
row,SMILES,IC50
1,CN(C)c1ccc(C(=O)Nc2ccc(C(=O)O)nc2)cc1,Not Active
2,COc1ccc(NC(=O)c2ccc(C(=O)O)nc2)c(OC)c1,Not Active
3,CCOc1ccc(C(=O)Nc2ccc(C(=O)O)nc2)cc1,Not Active
4,CN(C)c1ccc(NC(=O)c2ccc(C(=O)O)nc2)cc1,Not Active
5,Cc1ccc(NC(=O)c2ccc(C(=O)O)nc2)cc1,Not Active

# More lines, now with the values ahead:
row,IC50,SMILES
1,Not Active,COc1ccccc1NC(=O)c1ccc(C(=O)O)nc1
2,Not Active,O=C(O)c1ccc(NC(=O)c2ccccc2F)cn1
3,Not Active,O=C(Nc1ccccc1Cl)c1ccc(C(=O)O)nc1
